Key:
[1] = Plasma BOC and TVR pharmacokinetics when coadministered with MVC; format: in vivo, human; conditions: coadministered with MVC 150 mg BID
[2] = cited from earlier work; for AUC8 previously reported / C8 previously reported: dosed alone, range; for Mean historical minimum plasma concentration (Cmin): historical data
OATP1B1 = conditions: read-out: OATP1B1 IC50; in vitro data; cited from earlier work
CYP3A = conditions: oral coadministration of midazolam; cited from earlier work
P-gp = conditions: cited from earlier work
CYP3A and OATP1B1 = conditions: coadministered with atorvastatin; cited from earlier work
HIV-1 = conditions: cited from earlier work

Compound	Exposures when coadministered with MVC compared with historical data [1]	AUC8 previously reported [2] [ng·h/mL]	C8 previously reported [2] [ng/mL]	Mean historical minimum plasma concentration (Cmin) [2] [ng/mL]	IC50 (OATP1B1) [µM]	Increase in AUC of midazolam (CYP3A) [%]	Increase in AUC of digoxin (P-gp) [%]	Increase in AUC (exposure) of atorvastatin (CYP3A and OATP1B1) [fold]	Cavg exposure at which near maximal virologic efficacy is achieved (HIV-1)
CC(C)(C)NC(=O)N[C@H](C(=O)N1C[C@H]2[C@@H]([C@H]1C(=O)NC(CC1CCC1)C(=O)C(N)=O)C2(C)C)C(C)(C)C (some centres unmarked) [BOC, Boceprevir]	consistent with historical data	4601 to 7070	88.5 to 111	102	18	430	19	2.30	
CCC[C@H](NC(=O)[C@@H]1[C@H]2CCC[C@H]2CN1C(=O)[C@@H](NC(=O)[C@@H](NC(=O)c1cnccn1)C1CCCCC1)C(C)(C)C)C(=O)C(=O)NC1CC1 [TVR, Telaprevir]	consistent with historical data	18157 to 22300	1505 to 2030	1802	2.2	796	85	7.88	
Maraviroc [MVC]									75–100 ng/mL

Reference: paper PMC3984012 (Journal of Acquired Immune Deficiency Syndromes (1999), 2014)
